This is an account of results in ChEMBL document CHEMBL1157954, “Cycloleonuripeptides E and F, cyclic nonapeptides from Leonurus heterophyllus” (2006).

Molecules are shown by their SMILES. Residues, ends and D or L forms follow the SMILES beside them.

The assay has as its system Aorta. Briefly: Vasorelaxation activity in Wistar rat thoracic aorta assessed as inhibition of norepinephrine-induced contraction at 10^-4 M. Also noted: scale not given: the % may be the effect or the level left. It is filed as functional.

In the case of `CC[C@H](C)[C@@H]1NC(=O)[C@@H]2CCCN2C(=O)[C@H](C)NC(=O)[C@@H]2CCCN2C(=O)[C@H]([C@@H](C)O)NC(=O)[C@H](Cc2ccccc2)NC(=O)[C@H](C)NC(=O)[C@H](C)NC(=O)[C@H](C(C)C)NC1=O` [CYCLOLEONURIPEPTIDE E] (cyclo(AAFTPAPIV)), the Activity amounted to 32%.

Take `CC(C)C[C@@H]1NC(=O)[C@@H]2CCCN2C(=O)[C@H](Cc2ccc(O)cc2)NC(=O)CNC(=O)[C@@H]2CCCN2C(=O)[C@@H]2CCCN2C(=O)[C@H](Cc2ccc(O)cc2)NC(=O)[C@H](Cc2ccccc2)NC(=O)[C@@H]2CCCN2C1=O` [CYCLOLEONURIPEPTIDE F] (cyclo(FYPPGYPLP)): the Activity was determined as 40%.
